{"source": "the supplement of paper PMC10307832", "experiment_in_all_cases": "relative viability (nuclei count vs DMSO), 5 days (fraction); higher = more cells survive", "key": {"A-427": {"tested_on": "A-427", "summary_of_the_method": "(§1)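 Five library-drug doses in √10 steps were combined with a fixed anchor-drug dose, or a single drug was given alone, by pin tool to lung cancer cell lines in 1536-well plates the day after seeding. Nuclei were stained and counted after 5 days. Relative viability is the nuclei count in treated wells over that in vehicle wells, taken as the median of duplicate plates.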"}, "COR-L 105": {"tested_on": "COR-L 105", "summary_of_the_method": "as §1"}, "H3255": {"tested_on": "H3255", "summary_of_the_method": "as §1"}, "HCC-44": {"tested_on": "HCC-44", "summary_of_the_method": "as §1"}, "HCC-827": {"tested_on": "HCC-827", "summary_of_the_method": "as §1"}, "LCLC-103H": {"tested_on": "LCLC-103H", "summary_of_the_method": "as §1"}, "LOU-NH91": {"tested_on": "LOU-NH91", "summary_of_the_method": "as §1"}, "LXF-289": {"tested_on": "LXF-289", "summary_of_the_method": "as §1"}, "NCI-H1792": {"tested_on": "NCI-H1792", "summary_of_the_method": "as §1"}, "NCI-H1915": {"tested_on": "NCI-H1915", "summary_of_the_method": "as §1"}, "NCI-H1944": {"tested_on": "NCI-H1944", "summary_of_the_method": "as §1"}, "NCI-H1975": {"tested_on": "NCI-H1975", "summary_of_the_method": "as §1"}, "NCI-H1993": {"tested_on": "NCI-H1993", "summary_of_the_method": "as §1"}, "NCI-H2023": {"tested_on": "NCI-H2023", "summary_of_the_method": "as §1"}, "NCI-H2087": {"tested_on": "NCI-H2087", "summary_of_the_method": "as §1"}, "NCI-H2170": {"tested_on": "NCI-H2170", "summary_of_the_method": "as §1"}, "NCI-H358": {"tested_on": "NCI-H358", "summary_of_the_method": "as §1"}, "NCI-H520": {"tested_on": "NCI-H520", "summary_of_the_method": "as §1"}, "SK-MES-1": {"tested_on": "SK-MES-1", "summary_of_the_method": "as §1"}, "SW 1573": {"tested_on": "SW 1573", "summary_of_the_method": "as §1"}}}
{"smiles": "Cc1csc(=NC2CCCCC2)n1/N=C/c1ccc(O)c(O)c1O", "note": "[MIM1] + C[C@@H](Oc1cc(-c2cnn(C3CCNCC3)c2)cnc1N)c1c(Cl)ccc(F)c1Cl [Crizotinib] (partner 1 µM)", "values": [{"measurement": "relative viability", "setting": "A-427; first compound 0.2 µM", "value": 0.881}, {"measurement": "relative viability", "setting": "A-427; first compound 0.6325 µM", "value": 0.731}, {"measurement": "relative viability", "setting": "A-427; first compound 2 µM", "value": 0.862}, {"measurement": "relative viability", "setting": "A-427; first compound 6.325 µM", "value": 0.713}, {"measurement": "relative viability", "setting": "A-427; first compound 20 µM", "value": 0.214}, {"measurement": "relative viability", "setting": "COR-L 105; first compound 0.2 µM", "value": 0.893}, {"measurement": "relative viability", "setting": "COR-L 105; first compound 0.6325 µM", "value": 0.811}, {"measurement": "relative viability", "setting": "COR-L 105; first compound 2 µM", "value": 0.612}, {"measurement": "relative viability", "setting": "COR-L 105; first compound 6.325 µM", "value": 0.724}, {"measurement": "relative viability", "setting": "COR-L 105; first compound 20 µM", "value": 0.759}, {"measurement": "relative viability", "setting": "H3255; first compound 0.2 µM", "value": 0.911}, {"measurement": "relative viability", "setting": "H3255; first compound 0.6325 µM", "value": 0.847}, {"measurement": "relative viability", "setting": "H3255; first compound 2 µM", "value": 0.774}, {"measurement": "relative viability", "setting": "H3255; first compound 6.325 µM", "value": 0.629}, {"measurement": "relative viability", "setting": "H3255; first compound 20 µM", "value": 0.435}, {"measurement": "relative viability", "setting": "HCC-44; first compound 0.2 µM", "value": 0.766}, {"measurement": "relative viability", "setting": "HCC-44; first compound 0.6325 µM", "value": 0.74}, {"measurement": "relative viability", "setting": "HCC-44; first compound 2 µM", "value": 0.67}, {"measurement": "relative viability", "setting": "HCC-44; first compound 6.325 µM", "value": 0.391}, {"measurement": "relative viability", "setting": "HCC-44; first compound 20 µM", "value": 0.152}, {"measurement": "relative viability", "setting": "HCC-827; first compound 0.2 µM", "value": 0.971}, {"measurement": "relative viability", "setting": "HCC-827; first compound 0.6325 µM", "value": 0.919}, {"measurement": "relative viability", "setting": "HCC-827; first compound 2 µM", "value": 0.927}, {"measurement": "relative viability", "setting": "HCC-827; first compound 6.325 µM", "value": 0.307}, {"measurement": "relative viability", "setting": "HCC-827; first compound 20 µM", "value": 0.366}, {"measurement": "relative viability", "setting": "LCLC-103H; first compound 0.2 µM", "value": 1}, {"measurement": "relative viability", "setting": "LCLC-103H; first compound 0.6325 µM", "value": 1}, {"measurement": "relative viability", "setting": "LCLC-103H; first compound 2 µM", "value": 1.1}, {"measurement": "relative viability", "setting": "LCLC-103H; first compound 6.325 µM", "value": 0.909}, {"measurement": "relative viability", "setting": "LCLC-103H; first compound 20 µM", "value": 0.985}, {"measurement": "relative viability", "setting": "LOU-NH91; first compound 0.2 µM", "value": 0.748}, {"measurement": "relative viability", "setting": "LOU-NH91; first compound 0.6325 µM", "value": 0.728}, {"measurement": "relative viability", "setting": "LOU-NH91; first compound 2 µM", "value": 0.683}, {"measurement": "relative viability", "setting": "LOU-NH91; first compound 6.325 µM", "value": 0.675}, {"measurement": "relative viability", "setting": "LOU-NH91; first compound 20 µM", "value": 0.392}, {"measurement": "relative viability", "setting": "LXF-289; first compound 0.2 µM", "value": 0.806}, {"measurement": "relative viability", "setting": "LXF-289; first compound 0.6325 µM", "value": 0.732}, {"measurement": "relative viability", "setting": "LXF-289; first compound 2 µM", "value": 0.833}, {"measurement": "relative viability", "setting": "LXF-289; first compound 6.325 µM", "value": 0.655}, {"measurement": "relative viability", "setting": "LXF-289; first compound 20 µM", "value": 0.388}, {"measurement": "relative viability", "setting": "NCI-H1792; first compound 0.2 µM", "value": 0.935}, {"measurement": "relative viability", "setting": "NCI-H1792; first compound 0.6325 µM", "value": 0.897}, {"measurement": "relative viability", "setting": "NCI-H1792; first compound 2 µM", "value": 1.02}, {"measurement": "relative viability", "setting": "NCI-H1792; first compound 6.325 µM", "value": 0.481}, {"measurement": "relative viability", "setting": "NCI-H1792; first compound 20 µM", "value": 0.902}, {"measurement": "relative viability", "setting": "NCI-H1915; first compound 0.2 µM", "value": 0.887}, {"measurement": "relative viability", "setting": "NCI-H1915; first compound 0.6325 µM", "value": 0.875}, {"measurement": "relative viability", "setting": "NCI-H1915; first compound 2 µM", "value": 0.792}, {"measurement": "relative viability", "setting": "NCI-H1915; first compound 6.325 µM", "value": 0.648}, {"measurement": "relative viability", "setting": "NCI-H1915; first compound 20 µM", "value": 0.219}, {"measurement": "relative viability", "setting": "NCI-H1944; first compound 0.2 µM", "value": 1.11}, {"measurement": "relative viability", "setting": "NCI-H1944; first compound 0.6325 µM", "value": 1.09}, {"measurement": "relative viability", "setting": "NCI-H1944; first compound 2 µM", "value": 0.754}, {"measurement": "relative viability", "setting": "NCI-H1944; first compound 6.325 µM", "value": 0.811}, {"measurement": "relative viability", "setting": "NCI-H1944; first compound 20 µM", "value": 0.323}, {"measurement": "relative viability", "setting": "NCI-H1975; first compound 0.2 µM", "value": 0.908}, {"measurement": "relative viability", "setting": "NCI-H1975; first compound 0.6325 µM", "value": 1.1}, {"measurement": "relative viability", "setting": "NCI-H1975; first compound 2 µM", "value": 0.871}, {"measurement": "relative viability", "setting": "NCI-H1975; first compound 6.325 µM", "value": 0.545}, {"measurement": "relative viability", "setting": "NCI-H1975; first compound 20 µM", "value": 0.482}, {"measurement": "relative viability", "setting": "NCI-H1993; first compound 0.2 µM", "value": 0.886}, {"measurement": "relative viability", "setting": "NCI-H1993; first compound 0.6325 µM", "value": 0.805}, {"measurement": "relative viability", "setting": "NCI-H1993; first compound 2 µM", "value": 0.827}, {"measurement": "relative viability", "setting": "NCI-H1993; first compound 6.325 µM", "value": 0.608}, {"measurement": "relative viability", "setting": "NCI-H1993; first compound 20 µM", "value": 0.594}, {"measurement": "relative viability", "setting": "NCI-H2023; first compound 0.2 µM", "value": 0.551}, {"measurement": "relative viability", "setting": "NCI-H2023; first compound 0.6325 µM", "value": 0.598}, {"measurement": "relative viability", "setting": "NCI-H2023; first compound 2 µM", "value": 0.573}, {"measurement": "relative viability", "setting": "NCI-H2023; first compound 6.325 µM", "value": 0.406}, {"measurement": "relative viability", "setting": "NCI-H2023; first compound 20 µM", "value": 0.111}, {"measurement": "relative viability", "setting": "NCI-H2087; first compound 0.2 µM", "value": 0.772}, {"measurement": "relative viability", "setting": "NCI-H2087; first compound 0.6325 µM", "value": 0.934}, {"measurement": "relative viability", "setting": "NCI-H2087; first compound 2 µM", "value": 0.838}, {"measurement": "relative viability", "setting": "NCI-H2087; first compound 6.325 µM", "value": 0.739}, {"measurement": "relative viability", "setting": "NCI-H2087; first compound 20 µM", "value": 0.766}, {"measurement": "relative viability", "setting": "NCI-H2170; first compound 0.2 µM", "value": 1.15}, {"measurement": "relative viability", "setting": "NCI-H2170; first compound 0.6325 µM", "value": 1.07}, {"measurement": "relative viability", "setting": "NCI-H2170; first compound 2 µM", "value": 1.13}, {"measurement": "relative viability", "setting": "NCI-H2170; first compound 6.325 µM", "value": 0.652}, {"measurement": "relative viability", "setting": "NCI-H2170; first compound 20 µM", "value": 0.302}, {"measurement": "relative viability", "setting": "NCI-H358; first compound 0.2 µM", "value": 0.572}, {"measurement": "relative viability", "setting": "NCI-H358; first compound 0.6325 µM", "value": 0.459}, {"measurement": "relative viability", "setting": "NCI-H358; first compound 2 µM", "value": 0.545}, {"measurement": "relative viability", "setting": "NCI-H358; first compound 6.325 µM", "value": 0.225}, {"measurement": "relative viability", "setting": "NCI-H358; first compound 20 µM", "value": 0.295}, {"measurement": "relative viability", "setting": "NCI-H520; first compound 0.2 µM", "value": 0.688}, {"measurement": "relative viability", "setting": "NCI-H520; first compound 0.6325 µM", "value": 0.787}, {"measurement": "relative viability", "setting": "NCI-H520; first compound 2 µM", "value": 0.862}, {"measurement": "relative viability", "setting": "NCI-H520; first compound 6.325 µM", "value": 0.578}, {"measurement": "relative viability", "setting": "NCI-H520; first compound 20 µM", "value": 0.498}, {"measurement": "relative viability", "setting": "SK-MES-1; first compound 0.2 µM", "value": 0.953}, {"measurement": "relative viability", "setting": "SK-MES-1; first compound 0.6325 µM", "value": 0.937}, {"measurement": "relative viability", "setting": "SK-MES-1; first compound 2 µM", "value": 0.959}, {"measurement": "relative viability", "setting": "SK-MES-1; first compound 6.325 µM", "value": 0.799}, {"measurement": "relative viability", "setting": "SK-MES-1; first compound 20 µM", "value": 0.732}, {"measurement": "relative viability", "setting": "SW 1573; first compound 0.2 µM", "value": 0.8}, {"measurement": "relative viability", "setting": "SW 1573; first compound 0.6325 µM", "value": 0.847}, {"measurement": "relative viability", "setting": "SW 1573; first compound 2 µM", "value": 0.875}, {"measurement": "relative viability", "setting": "SW 1573; first compound 6.325 µM", "value": 0.661}, {"measurement": "relative viability", "setting": "SW 1573; first compound 20 µM", "value": 0.451}]}
